Data published in patent publication US8362027B2, “Iontophoretic preparation for treatment of breast cancer and/or mastitis” (Kowa Co., Ltd., priority 2005, dated 2013).
Like-named read-outs stand apart in the source and are kept apart here.

How the values were obtained:
[1] = not given; remark: listed apart in the source
[2] = nipple skin (corrected to nipple part only), no application of electric potential, 60 min
[3] = nipple skin (corrected to nipple part only), no application of electric potential, 120 min
[4] = nipple skin (corrected to nipple part only), no application of electric potential, 180 min
[5] = nipple skin, no application of electric potential

Compound: O=c1[nH]cc(F)c(=O)[nH]1 [5-fluorouracil]
- permeated amount of 5-fluorouracil (nipple skin (corrected to nipple part only), application of electric potential (3 V), 60 min): 17.6 μg/cm^2
- permeated amount of 5-fluorouracil (nipple skin (corrected to nipple part only), application of electric potential (3 V), 120 min): 151.7 μg/cm^2
- permeated amount of 5-fluorouracil (nipple skin (corrected to nipple part only), application of electric potential (3 V), 180 min): 383.3 μg/cm^2
- permeated amount of 5-fluorouracil (nipple skin (corrected to nipple part only), application of electric potential (3 V), 240 min): 676.3 μg/cm^2
- permeated amount of 5-fluorouracil (nipple skin (corrected to nipple part only), application of electric potential (3 V), 300 min): 1032.3 μg/cm^2
- permeated amount of 5-fluorouracil (nipple skin (corrected to nipple part only), application of electric potential (3 V), 360 min): 1391.3 μg/cm^2
- permeated amount of 5-fluorouracil [2]: 0.0 μg/cm^2
- permeated amount of 5-fluorouracil [3]: 0.2 μg/cm^2
- permeated amount of 5-fluorouracil [4]: 0.7 μg/cm^2
- permeated amount of 5-fluorouracil (nipple skin (corrected to nipple part only), no application of electric potential, 240 min): 1.6 μg/cm^2
- permeated amount of 5-fluorouracil (nipple skin (corrected to nipple part only), no application of electric potential, 300 min): 3.0 μg/cm^2
- permeated amount of 5-fluorouracil (nipple skin (corrected to nipple part only), no application of electric potential, 360 min): 5.6 μg/cm^2
- Increase rate of permeated amount after 360 minutes with respect to normal skin without application of electric potential (nipple skin, application of electric potential (3 V)): 9937.8
- Increase rate of permeated amount after 360 minutes with respect to normal skin without application of electric potential [5]: 39.7
- increase of permeability of 5-fluorouracil (nipple, compared with the permeability without application of electric potential): about 40 times
- increase of permeability of 5-fluorouracil (nipple, electric potential applied (3V), vs normal skin): about 10000 times
- Increase rate of permeated amount after 360 minutes with respect to normal skin without application of electric potential (normal skin, application of electric potential (3 V)): 3430.7
- permeated amount of 5-fluorouracil (normal skin, application of electric potential (3 V), 60 min, donor 1%, pH 8.5): 1.3 μg/cm^2
- permeated amount of 5-fluorouracil (normal skin, application of electric potential (3 V), 120 min, donor 1%, pH 8.5): 11.7 μg/cm^2
- permeated amount of 5-fluorouracil (normal skin, application of electric potential (3 V), 180 min, donor 1%, pH 8.5): 44.4 μg/cm^2
- permeated amount of 5-fluorouracil (normal skin, application of electric potential (3 V), 240 min, donor 1%, pH 8.5): 121.5 μg/cm^2
- permeated amount of 5-fluorouracil (normal skin, application of electric potential (3 V), 300 min, donor 1%, pH 8.5): 264.9 μg/cm^2
- permeated amount of 5-fluorouracil (normal skin, application of electric potential (3 V), 360 min, donor 1%, pH 8.5): 480.3 μg/cm^2
- increase of permeability of 5-fluorouracil (normal skin, electric potential applied (3V), vs without potential): about 3000 times
- permeated amount of 5-fluorouracil (normal skin, no application of electric potential, 60 min, donor 1%, pH 8.5): 0.0 μg/cm^2
- permeated amount of 5-fluorouracil (normal skin, no application of electric potential, 120 min, donor 1%, pH 8.5): 0.0 μg/cm^2
- permeated amount of 5-fluorouracil (normal skin, no application of electric potential, 180 min, donor 1%, pH 8.5): 0.0 μg/cm^2
- permeated amount of 5-fluorouracil (normal skin, no application of electric potential, 240 min, donor 1%, pH 8.5): 0.0 μg/cm^2
- permeated amount of 5-fluorouracil (normal skin, no application of electric potential, 300 min, donor 1%, pH 8.5): 0.1 μg/cm^2
- permeated amount of 5-fluorouracil (normal skin, no application of electric potential, 360 min, donor 1%, pH 8.5): 0.1 μg/cm^2

Compound: O=P1(N(CCCl)CCCl)NCCCO1 (stereo not shown) [cyclophosphamide]
- permeated amount of cyclophosphamide ([1]; nipple skin (corrected to nipple part only), application of electric potential (0.1 mA/cm^2), 0 min): 0.0 μg/cm^2
- permeated amount of cyclophosphamide ([1]; nipple skin (corrected to nipple part only), application of electric potential (0.1 mA/cm^2), 30 min): 34.3 μg/cm^2
- permeated amount of cyclophosphamide ([1]; nipple skin (corrected to nipple part only), application of electric potential (0.1 mA/cm^2), 60 min): 123.2 μg/cm^2
- permeated amount of cyclophosphamide ([1]; nipple skin (corrected to nipple part only), application of electric potential (0.1 mA/cm^2), 90 min): 125.3 μg/cm^2
- permeated amount of cyclophosphamide ([1]; nipple skin (corrected to nipple part only), application of electric potential (0.1 mA/cm^2), 120 min): 121.4 μg/cm^2
- permeated amount of cyclophosphamide ([1]; nipple skin (corrected to nipple part only), application of electric potential (0.1 mA/cm^2), 150 min): 120.4 μg/cm^2
- permeated amount of cyclophosphamide ([1]; nipple skin (corrected to nipple part only), application of electric potential (0.1 mA/cm^2), 180 min): 123.1 μg/cm^2
- permeated amount of cyclophosphamide ([1]; nipple skin (corrected to nipple part only), no application of electric potential, 0 min): 0.0 μg/cm^2
- permeated amount of cyclophosphamide ([1]; nipple skin (corrected to nipple part only), no application of electric potential, 30 min): 24.9 μg/cm^2
- permeated amount of cyclophosphamide [1, 2]: 2.0 μg/cm^2
- permeated amount of cyclophosphamide ([1]; nipple skin (corrected to nipple part only), no application of electric potential, 90 min): 6.9 μg/cm^2
- permeated amount of cyclophosphamide [1, 3]: 20.2 μg/cm^2
- permeated amount of cyclophosphamide ([1]; nipple skin (corrected to nipple part only), no application of electric potential, 150 min): 1.4 μg/cm^2
- permeated amount of cyclophosphamide [1, 4]: 6.9 μg/cm^2
- Increase rate of permeated amount after 180 minutes with respect to normal skin without application of electric potential ([1]; nipple skin, application of electric potential (0.1 mA/cm^2)): 7.1
- Increase rate of permeated amount after 180 minutes with respect to normal skin without application of electric potential [1, 5]: 0.4
- change of permeability of cyclophosphamide ([1]; nipple without electric potential, compared with normal skin): not enhanced
- increase of permeability of cyclophosphamide ([1]; nipple, electric potential (0.1 mA/cm^2), vs normal skin without potential): about 7.1 times
- Increase rate of permeated amount after 180 minutes with respect to normal skin without application of electric potential ([1]; normal skin, application of electric potential (0.1 mA/cm^2)): 0.9
- permeated amount of cyclophosphamide ([1]; normal skin, application of electric potential (0.1 mA/cm^2), 0 min, donor 25 mM, pH 3): 0.0 μg/cm^2
- permeated amount of cyclophosphamide ([1]; normal skin, application of electric potential (0.1 mA/cm^2), 30 min, donor 25 mM, pH 3): 13.4 μg/cm^2
- permeated amount of cyclophosphamide ([1]; normal skin, application of electric potential (0.1 mA/cm^2), 60 min, donor 25 mM, pH 3): 13.9 μg/cm^2
- permeated amount of cyclophosphamide ([1]; normal skin, application of electric potential (0.1 mA/cm^2), 90 min, donor 25 mM, pH 3): 13.7 μg/cm^2
- permeated amount of cyclophosphamide ([1]; normal skin, application of electric potential (0.1 mA/cm^2), 120 min, donor 25 mM, pH 3): 16.2 μg/cm^2
- permeated amount of cyclophosphamide ([1]; normal skin, application of electric potential (0.1 mA/cm^2), 150 min, donor 25 mM, pH 3): 16.3 μg/cm^2
- permeated amount of cyclophosphamide ([1]; normal skin, application of electric potential (0.1 mA/cm^2), 180 min, donor 25 mM, pH 3): 16.2 μg/cm^2
- change of permeability of cyclophosphamide ([1]; normal skin, electric potential applied (0.1 mA/cm^2), vs without potential): hardly changed
- permeated amount of cyclophosphamide ([1]; normal skin, no application of electric potential, 0 min, donor 25 mM, pH 3): 0.0 μg/cm^2
- permeated amount of cyclophosphamide ([1]; normal skin, no application of electric potential, 30 min, donor 25 mM, pH 3): 13.3 μg/cm^2
- permeated amount of cyclophosphamide ([1]; normal skin, no application of electric potential, 60 min, donor 25 mM, pH 3): 14.4 μg/cm^2
- permeated amount of cyclophosphamide ([1]; normal skin, no application of electric potential, 90 min, donor 25 mM, pH 3): 15.0 μg/cm^2
- permeated amount of cyclophosphamide ([1]; normal skin, no application of electric potential, 120 min, donor 25 mM, pH 3): 15.5 μg/cm^2
- permeated amount of cyclophosphamide ([1]; normal skin, no application of electric potential, 150 min, donor 25 mM, pH 3): 17.2 μg/cm^2
- permeated amount of cyclophosphamide ([1]; normal skin, no application of electric potential, 180 min, donor 25 mM, pH 3): 17.4 μg/cm^2
